The results in this text go back to patent publication US20220194983A1, “PEPTIDE LIGANDS FOR BINDING TO PSMA” (BicycleTx Limited, priority 2018, published 2022).

Where “and” joins values, the source holds several entries; their conditions need not be identical. Equal entries are not always repeated.

The target in this assay is PSMA (Homo sapiens, UniProt Q04609). The experiment in a line: measured PSMA affinities (ka, kd, KD) of Dap(Me) substituted bicycles, Table 1. Particulars: for ka: association rate; for kd: dissociation rate. The class given is binding.
Chain of PSMA (Q04609 whole entry): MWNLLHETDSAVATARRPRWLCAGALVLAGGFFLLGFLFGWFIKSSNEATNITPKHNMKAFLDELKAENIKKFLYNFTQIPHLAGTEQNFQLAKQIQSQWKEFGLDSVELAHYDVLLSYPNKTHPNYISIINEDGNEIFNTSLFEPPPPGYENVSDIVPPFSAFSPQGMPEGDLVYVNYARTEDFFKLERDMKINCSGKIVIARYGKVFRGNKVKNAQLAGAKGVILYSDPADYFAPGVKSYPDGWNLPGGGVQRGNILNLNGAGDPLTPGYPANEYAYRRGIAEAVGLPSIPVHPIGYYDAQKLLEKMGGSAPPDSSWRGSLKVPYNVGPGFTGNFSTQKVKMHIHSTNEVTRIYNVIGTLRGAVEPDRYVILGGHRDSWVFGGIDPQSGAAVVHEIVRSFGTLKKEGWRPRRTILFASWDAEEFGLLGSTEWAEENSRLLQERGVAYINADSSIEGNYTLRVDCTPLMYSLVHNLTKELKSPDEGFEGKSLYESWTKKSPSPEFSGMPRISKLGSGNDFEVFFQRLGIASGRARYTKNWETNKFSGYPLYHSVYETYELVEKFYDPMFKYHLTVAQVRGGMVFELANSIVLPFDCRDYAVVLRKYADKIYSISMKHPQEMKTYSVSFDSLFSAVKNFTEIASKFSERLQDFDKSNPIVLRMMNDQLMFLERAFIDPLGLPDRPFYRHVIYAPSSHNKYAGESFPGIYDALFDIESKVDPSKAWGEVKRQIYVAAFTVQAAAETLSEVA

As for “[Ac][Gla]V[Dap(Me)]WDCF[Nle][Nle]EDGT[Dap(Me)]A [BCY00009312]”, the ka was 1.01E+05 M1s1 and 7.35E+04 M1s1; the kd is 7.77E−03 s1 and 1.21E−02 s1.
“[Ac][dE]V[Dap(Me)]KDCF[Nle][Nle]EDGT[Dap(Me)]A [BCY00009314]”: the ka is listed as 3.79E+04 M1s1 and the kd is recorded as 3.86E−02 s1.
The matching figures for “[Ac][dE]V[Dap(Me)]WDCFL[Nle]EDGT[Dap(Me)]A [BCY00009306]”: 9.04E+04 M1s1 and 1.97E−02 s1.
The matching figures for “[Ac][dE]V[Dap(Me)]WDCFY[Nle]EDGT[Dap(Me)]A [BCY00009308]”: 8.73E+04 M1s1 and 2.88E−02 s1.
The substance “[Ac][dE]V[Dap(Me)]WDCF[Hse(Me)][Nle]EDGT[Dap(Me)]A [BCY00009305]” yielded a ka of 4.32E+04 M1s1 and a kd of 5.35E−02 s1.
“[Ac][dE]V[Dap(Me)]WDCF[Nle]LEDGT[Dap(Me)]A [BCY00009310]” gave a ka of 5.93E+04 M1s1 and a kd of 4.32E−02 s1.
The matching figures for “[Ac][dE]V[Dap(Me)]WDCF[Nle][Hse(Me)]EDGT[Dap(Me)]A [BCY00009309]”: 5.17E+04 M1s1 and 2.93E−01 s1.
For “[Ac][dE]V[Dap(Me)]WDCF[Nle][Nle]EDGT[Dap(Me)]A [BCY00009300]”, in that order: 7.04E+04 M1s1 and 1.02E−02 s1.
The matching figures for “[Ac][dE]V[Dap(Me)]WDCF[Nle][tBuAla]EDGT[Dap(Me)]A [BCY00009311]”: 2.51E+04 M1s1 and 3.10E−03 s1.
In turn, “[Ac][dE]V[Dap(Me)]WDCF[tBuAla][Nle]EDGT[Dap(Me)]A [BCY00009307]” displayed a ka of 6.71E+04 M1s1 and a kd of 3.26E−02 s1.
“[Ac][dE]V[Dap(Me)]WDCK[Nle][Nle]EDGT[Dap(Me)]A [BCY00009315]” showed a ka of 2.81E+04 M1s1 and a kd of 4.62E−02 s1.
The matching figures for “[Ac][dE]V[Dap(Me)]WDCY[Nle][Nle]EDGT[Dap(Me)]A [BCY00009304]”: 1.03E+05 M1s1 and 1.24E−02 s1.
Regarding “[Ac][dE]V[Dap(Me)][2Nal]DCF[Nle][Nle]EDGT[Dap(Me)]A [BCY00009303]”, the ka came out at 8.74E+04 M1s1 and the kd is listed as 1.86E−02 s1.
As to “[Glutarate][dE]V[Dap(Me)]WDCF[Nle][Nle]EDGT[Dap(Me)]A [BCY00009313]”, the ka was determined as 1.24E+05 M1s1 and the kd is 9.81E−03 s1.
